Results: patent US20240336593A1, “Compound Having Antitumor Activity And Use Thereof” (lnnovStoneTherapeutics Limited, priority 2020, published 2024)

Molecular target: PRMT5 (Homo sapiens (Human), UniProt O14744)
Assay: Inhibitory activity against PRMT5 enzyme by radioisotopic method
Assay type: biochemical
Conditions: PRMT5 5 nM, [3H]-SAM 0.3 μM, polypeptide substrate GL-27 100 nM, room temperature
Protocol: Test Example 1. Test on the inhibitory activity of the compounds of the invention against PRMT5 enzyme by radioisotopic method
Test method: A 1× enzyme reaction buffer (10 mM Tris 8.0 (Sigma, Cat. No. T2694-1L), 0.01% Tween-20 (Sigma, Cat. No. P2287-100 ML), 1 mM DTT (Sigma, Cat. No. D0632-10G)) was prepared. PRMT5 (Active Motif, Cat. No. 31921) and [3H]—SAM (PerkinElmer, Cat. No. NET155V001MC) were added to the 1×enzyme reaction buffer, to prepare a 25/15× mixed solution (PRMT5 final concentration: 5 nM, [3H]—SAM final concentration: 0.3 μM). 15 μL of this solution was transferred into a 384-well microplate (Corning 384-well Polypropylene Storage Microplates, Cat. No. 3657) with various concentrations of the compounds (DMSO final concentration 1%), and incubated at room temperature for 60 minutes. A polypeptide substrate, GL-27 (Ac-[…]-K (Biotin) (GL Biochem, Cat. No. 342095)), was added into the 1×enzyme reaction buffer to prepare a 25/10× substrate solution. Then 10 μL of the polypeptide substrate solution (final concentration of the polypeptide substrate: 100 nM) was added, a reaction was stirred at room temperature for 120 minutes, and then 5 μL 6× ice cold SAM (Sigma, Cat. No. A7007-100 MG) solution was added to stop the reaction (SAM final concentration: 0.125 mM). 25 µL of the reaction mixture was transferred into a FlashPlate (Streptavidin FlashPlate HTS PLUS, High Capacity, 384-well, Perkin Elmer, Cat. No. SMP410A001PK), and incubated at room temperature for 1 h. After washed three times with distilled water containing 0.1% Tween-20, the microplate was read on a MicroBeta reader for CPM data (Counts Per Minute). […] Then the inhibition rate Inh % (Y) corresponding to each concentration (X) was input in EXCEL, and the IC50 value (the half maximal inhibitory concentration) of each compound was calculated with the XLfit plug-in according to the built-in four-parameter fitting equation Y=Bottom+(Top-Bottom)/(1+(IC50/X)[…]).

PRMT5, sequence (O14744 whole entry): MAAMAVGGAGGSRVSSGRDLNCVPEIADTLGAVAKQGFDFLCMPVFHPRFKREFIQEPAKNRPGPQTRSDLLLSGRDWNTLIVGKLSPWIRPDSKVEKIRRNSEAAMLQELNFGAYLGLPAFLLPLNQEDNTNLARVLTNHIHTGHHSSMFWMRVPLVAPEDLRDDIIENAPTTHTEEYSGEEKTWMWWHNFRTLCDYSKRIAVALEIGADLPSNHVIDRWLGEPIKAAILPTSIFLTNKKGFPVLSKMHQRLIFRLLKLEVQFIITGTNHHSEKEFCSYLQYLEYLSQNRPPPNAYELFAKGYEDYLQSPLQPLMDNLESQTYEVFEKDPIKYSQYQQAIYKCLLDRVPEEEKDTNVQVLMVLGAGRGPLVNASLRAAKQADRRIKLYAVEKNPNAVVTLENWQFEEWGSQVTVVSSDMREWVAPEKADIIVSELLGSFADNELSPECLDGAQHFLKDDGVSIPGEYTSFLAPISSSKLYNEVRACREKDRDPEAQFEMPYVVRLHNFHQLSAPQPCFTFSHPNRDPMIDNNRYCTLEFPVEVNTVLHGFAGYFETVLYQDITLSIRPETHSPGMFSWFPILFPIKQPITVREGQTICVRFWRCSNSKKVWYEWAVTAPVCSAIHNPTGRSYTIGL
PRMT5, sequence (Q9BQA1 whole entry partner): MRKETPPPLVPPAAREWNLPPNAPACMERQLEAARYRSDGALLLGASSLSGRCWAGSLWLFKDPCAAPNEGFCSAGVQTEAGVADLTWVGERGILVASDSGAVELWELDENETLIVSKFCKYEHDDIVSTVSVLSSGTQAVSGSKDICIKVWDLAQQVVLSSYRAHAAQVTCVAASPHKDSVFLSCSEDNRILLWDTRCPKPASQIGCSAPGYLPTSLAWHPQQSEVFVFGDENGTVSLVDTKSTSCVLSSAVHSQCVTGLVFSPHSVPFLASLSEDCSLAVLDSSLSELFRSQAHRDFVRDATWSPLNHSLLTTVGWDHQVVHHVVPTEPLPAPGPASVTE

Row | Compound | IC50
1 | O[C@H]1CN(c2cc(Nc3ccc(Cl)cc3)ncn2)CC[C@@H]1N1CCc2ccccc2C1 (relative stereo) [Example 62, trans-4-(3,4-dihydroisoquinolin-2(1H)-yl)-1-(6-((4-chlorophenyl)amino)pyrimidin-4-yl)piperidin-3-ol] | < 100 nM
2 | CC(=O)N1CCC(Nc2cc(C(=O)N3CC[C@H](N4CCc5ccccc5C4)[C@@H](O)C3)ncn2)CC1 (relative stereo) [Example 17, trans-1-(4-((6-(4-(3,4-dihydroisoquinolin-2(1H)-yl)-3-hydroxypiperidine-1-carbonyl)pyrimidin-4-yl)amino)piperidin-1-yl)ethanone] | < 100 nM
3 | COc1c(F)cccc1Nc1cc(N2CC[C@@H](N3CCc4ccccc4C3)[C@H](O)C2)ncn1 (relative stereo) [Example 88, trans-1-(6-((3-fluoro-2-methoxyphenyl)amino)pyrimidin-4-yl)-4-(3,4-dihydroisoquinolin-2(1H)-yl)piperidin-3-ol] | < 100 nM
4 | O=C(c1cc(N2CC[C@H](N3CCc4ccccc4C3)[C@@H](O)C2)ncn1)N1CC[C@H](N2CCc3ccccc3C2)[C@@H](O)C1 [Example 97] | < 100 nM
5 | CCC(CC)Oc1nc(NC2CCN(C(C)=O)CC2)cc(C(=O)N2CC[C@@H](N3CCc4ccccc4C3)[C@H](O)C2)n1 [Example 141, 1-(4-((6-((3R,4R)-4-(3,4-dihydro-4,4-dideuterium-isoquinolin-2(1H)-yl)-3-hydroxypiperidine-1-carbonyl)-2-(pentane-3-oxy)pyrimidin-4-yl)amino)piperidin-1-yl)-ethan-1-one] | < 100 nM
6 | O[C@H]1CN(c2cc(Nc3cccc4c3OCCO4)ncn2)CC[C@@H]1N1CCc2ccccc2C1 (relative stereo) [Example 94, trans-1-(6-((2,3-dihydrobenzo[b][1,4]dioxin-5-yl)amino)pyrimidin-4-yl)-4-(3,4-dihydroisoquinolin-2(1H)-yl)piperidin-3-ol] | < 100 nM
7 | O[C@@H]1CN(c2cc(Nc3cccc(-c4ccccc4)c3)ncn2)CC[C@H]1N1CCc2ccccc2C1 (relative stereo) [Example 74, trans-1-(6-([1,1′-biphenyl]-3-ylamino)pyrimidin-4-yl)-4-(3,4-dihydroisoquinolin-2(1H)-yl)piperidin-3-ol] | < 100 nM
8 | O[C@H]1CN(c2cc(Nc3ccccc3)ncn2)CC[C@@H]1N1CCc2ccccc2C1 (relative stereo) [Example 24, trans-4-(3,4-dihydroisoquinolin-2(1H)-yl)-1-(6-(phenylamino)-pyrimidin-4-yl)piperidin-3-ol] | < 100 nM
9 | O[C@H]1CN(c2cc(Nc3ccccc3OC(F)(F)F)ncn2)CC[C@@H]1N1CCc2ccccc2C1 (relative stereo) [Example 84, trans-4-(3,4-dihydroisoquinolin-2(1H)-yl)-1-(6-((2-(trifluoromethoxy)-phenyl)amino)pyrimidin-4-yl)piperidin-3-ol] | < 100 nM
10 | O[C@H]1CN(c2cc(Nc3ccc(F)cc3)ncn2)CC[C@@H]1N1CCc2ccccc2C1 (relative stereo) [Example 30, trans-4-(3,4-dihydroisoquinolin-2(1H)-yl)-1-(6-((4-fluorophenyl)amino)-pyrimidin-4-yl)piperidin-3-ol] | < 100 nM
11 | O[C@@H]1CN(c2cc(Nc3ccccc3N3CCCC3)ncn2)CC[C@H]1N1CCc2ccccc2C1 (relative stereo) [Example 80, trans-4-(3,4-dihydroisoquinolin-2(1H)-yl)-1-(6-((2-(pyrrolidin-1-yl)phenyl)amino)pyrimidin-4-yl)piperidin-3-ol] | < 100 nM
12 | CC(=O)N1CCCC(Nc2cc(C(=O)N3CC[C@H](N4CCc5ccccc5C4)[C@@H](O)C3)ncn2)C1 (relative stereo) [Example 106, trans-1-(3-((6-(4-(3,4-dihydroisoquinolin-2(1H)-yl)-3-hydroxypiperidine-1-carbonyl)pyrimidin-4-yl)amino)piperidin-1-yl)ethan-1-one] | < 100 nM

Next, values leading:

Row | IC50 | Compound
13 | < 100 nM | C=Cc1nc(NC2CCN(C(C)=O)CC2)cc(C(=O)N2CC[C@@H](N3CCc4ccccc4C3)[C@H](O)C2)n1 [Example 152, 1-(4-((6-((3R,4R)-4-(3,4-dihydroisoquinolin-2(1H)-yl)-3-hydroxypiperidine-1-carbonyl)-2-vinylpyrimidin-4-yl)amino)piperidin-1-yl)ethan-1-one]
14 | < 100 nM | COC(=O)N1CCC(Nc2cc(C(=O)N3CC[C@H](N4CCc5ccccc5C4)[C@@H](O)C3)ncn2)CC1 (relative stereo) [Example 123, methyl trans-4-((6-(4-(3,4-dihydroisoquinolin-2(1H)-yl)-3-hydroxypiperidine-1-carbonyl)pyrimidin-4-yl)amino)piperidine-1-carboxylate]
15 | < 100 nM | N#CC1CCC(Nc2cc(C(=O)N3CC[C@H](N4CCc5ccccc5C4)[C@@H](O)C3)ncn2)CC1 (stereo partly drawn) [Example 138, 4-((6-(trans-4-(3,4-dihydroisoquinolin-2(1H)-yl)-3-hydroxypiperidine-L-carbonyl)pyrimidin-4-yl)amino)cyclohexane-1-carbonitrile]
16 | < 100 nM | CC(C)(C)OC(=O)N1CCC(Nc2cc(C(=O)N3CC[C@H](N4CCc5ccccc5C4)[C@@H](O)C3)ncn2)CC1 (relative stereo) [Example 110, t-butyl trans-4-((6-(4-(3,4-dihydroisoquinolin-2(1H)-yl)-3-hydroxypiperidine-1-carbonyl)pyrimidin-4-yl)amino)piperidine-1-carboxylate]
17 | < 100 nM | O=C(c1cc(NC2CCN(CC(F)(F)F)CC2)ncn1)N1CC[C@H](O)[C@@H](N2CCc3ccccc3C2)CC1 [Example 127]
18 | < 100 nM | CC(=O)N1CCC(Nc2cc(C(=O)N3CC[C@@H](N4CCc5ccccc5C4)[C@H](O)C3)nc(OC3CCC(F)(F)CC3)n2)CC1 [Example 154, 1-(4-((2-((4,4-difluorocyclohexyl)oxy)-6-((3R,4R)-4-(3,4-dihydroisoquinolin-2(1H)-yl)-3-hydroxypiperidine-1-carbonyl)pyrimidin-4-yl)amino)-piperidin-1-yl)ethan-1-one]
19 | < 100 nM | O=C(c1cc(NC2CCOCC2)ncn1)N1CC[C@H](N2CCc3ccccc3C2)[C@@H](O)C1 [Example 109]
20 | < 100 nM | O=C(c1cc(NC2CCN(C(=O)C3CC3)CC2)ncn1)N1CC[C@H](N2CCc3ccccc3C2)[C@@H](O)C1 (relative stereo) [Example 116, trans-(6-((1-(cyclopropanecarbonyl)piperidin-4-yl)amino)pyrimidin-4-yl)(4-(3,4-dihydroisoquinolin-2(1H)-yl)-3-hydroxypiperidin-1-yl)ketone]
21 | < 100 nM | CC(=O)N1CCC(Nc2cc(C(=O)N3CC[C@@H](N4CCc5ccccc5C4)[C@H](O)C3)nc(OC(F)(F)F)n2)CC1 [Example 151, 1-(4-((6-((3R,4R)-4-(3,4-dihydroisoquinolin-2(1H)-yl)-3-hydroxypiperidine-1-carbonyl)-2-(trifluoromethoxy)pyrimidin-4-yl)amino)piperidin-1-yl)ethan-1-one]
22 | < 100 nM | CC(=O)N1CCC(Nc2cc(C(=O)N3CC[C@@H](N4CCc5ccccc5C4)[C@H](O)C3)nc(-c3ccc(C)s3)n2)CC1 [Example 153, 1-(4-((6-((3R,4R)-4-(3,4-dihydroisoquinolin-2(1H)-yl)-3-hydroxypiperidine-1-carbonyl)-2-(5-methylthiophen-2-yl)pyrimidin-4-yl)amino)piperidin-1-yl)ethan-1-one]
